# Reference: patent US11248006B2, “Macrocyclic derivative of pyrazol[3,4-d]pyrimidin-3-one, pharmaceutical composition and use thereof” (SHANGHAI DE NOVO PHARMATECH CO., LTD., priority 2017, dated 2022)
# Target: Wee1 (Homo sapiens (Human), UniProt P30291)
# Assay: Wee1 enzyme catalysis assay (ATP-Glo Max kinase luminescence detection kit)
# Assay type: biochemical
# Settings: Wee1 enzymatic activity, 10 μM ATP, Poly (Lys, Tyr) substrate, 30° C. for 50 minutes
# Experimental: In the present disclosure, Wee1 enzyme catalysis assay was carried out using the ATP-Glo Max kinase luminescence detection kit (Promega). Kinase activity was assessed by quantitative detection of the amount of ATP retained in the solution following the kinase reaction. The luminescent signal in the assay is proportional to the amount of ATP and inversely proportional to the kinase activity. The concentration of the compound in the assay ranged from 0.5 nM to 30 μM. The compound was dissolved in 10% DMSO, and 5 μL of the solution was added to 50 μL of the reaction, and the concentration of DMSO in the final reaction was 1%. The reaction was carried out at 30° C. for 50 minutes. 40 mM trishydroxymetyl aminomethane, pH 7.4, 10 mM MgCl2, 0.1 mg/ml BSA, 2 mM DTT, 0.1 mg/ml Poly (Lys, Tyr) substrate, 10 μM ATP and Wee1 were contained in the reaction mixture. After the enzymatic reaction, 50 μL of ATP-Glo Max kinase luminescence detection assay solution (Promega) was added and incubated for 15 minutes at room temperature. The luminescent signal was measured using a microplate reader. In some assays, a known Wee1 inhibitor was added as a positive control. Luminance data was analyzed using Graphpad software. The difference between the luminescence intensity in the absence of Wee1 and the luminescence intensity in the presence of Wee1 was defined as 100% activity (Lut−Luc). Using the luminescence intensity signal (Lu) in the presence of the compound, the % activity was calculated as follows: % Activity={(Lut−Lu)/(Lut−Luc)}×100%, wherein, Lu=luminous intensity of the compound Non-linear regression analysis was employed to plot the dose-effect curve of % activity value and the corresponding concentrations for the series of compounds. The equation is Y=B+(TB)/1+10((Log EC50−X)×Hill Slope), Y=% activity, B=minimum activity percentage, T=maximum activity percentage, X=logarithm of compound and Hill slope=slope factor or Hill coefficient. The IC50 value was determined by the concentration of a compound that is required to obtain 50% of the maximum effect.
# Sequence of Wee1 (P30291 whole entry): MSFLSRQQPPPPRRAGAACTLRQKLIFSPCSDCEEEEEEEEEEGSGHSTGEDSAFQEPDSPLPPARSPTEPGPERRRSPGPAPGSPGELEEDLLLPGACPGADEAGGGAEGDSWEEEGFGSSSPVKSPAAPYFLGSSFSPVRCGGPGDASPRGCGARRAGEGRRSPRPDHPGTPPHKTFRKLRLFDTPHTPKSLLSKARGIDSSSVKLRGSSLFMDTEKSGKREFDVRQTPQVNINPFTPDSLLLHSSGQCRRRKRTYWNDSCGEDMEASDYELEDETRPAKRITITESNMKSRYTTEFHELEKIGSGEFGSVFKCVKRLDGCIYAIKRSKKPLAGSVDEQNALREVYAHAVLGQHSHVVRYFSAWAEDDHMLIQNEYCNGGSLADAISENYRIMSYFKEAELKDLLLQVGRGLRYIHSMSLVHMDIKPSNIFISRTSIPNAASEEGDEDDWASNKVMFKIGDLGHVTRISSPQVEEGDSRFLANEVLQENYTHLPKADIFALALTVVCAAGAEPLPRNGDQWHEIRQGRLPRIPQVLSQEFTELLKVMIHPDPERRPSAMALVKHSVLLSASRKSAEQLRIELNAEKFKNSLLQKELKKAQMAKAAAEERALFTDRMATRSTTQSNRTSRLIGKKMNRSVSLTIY
row,SMILES,IC50
1,CN1CCCC(n2ccc3cc(Nc4ncc5c(=O)n6n(c5n4)-c4ccc5c(n4)N(CCC/C=C\C6)C(=O)CO5)ccc32)C1 (stereo not shown) [Compound 3-7-2],18.2 nM
2,COC(=O)N1CCC(n2ccc3cc(Nc4ncc5c(=O)n6n(c5n4)-c4ccc5c(n4)N(CCC/C=C\C6)C(=O)CO5)ccc32)CC1 [Compound 3-7-4],36.6 nM
3,CN1CCOc2ccc(Nc3ncc4c(=O)n5n(c4n3)-c3ccc4c(n3)N(CCC/C=C\C5)C(=O)CO4)cc2C1 [Compound 3-4-2],8.2 nM
4,CC(=O)N1CCC/C=C\Cn2c(=O)c3cnc(Nc4ccc5c(c4)CN(C)CC54CC4)nc3n2-c2cccc1n2 [Compound 2-2-1],3.7 nM
5,CN1Cc2ccc(Nc3ncc4c(=O)n5n(c4n3)-c3cccc(n3)OCCOC/C=C/C5)cc2C(C)(C)C1 [Compound 1-3-2],23.8 nM
6,CN(C)CCn1ccc2cc(Nc3ncc4c(=O)n5n(c4n3)-c3ccc4c(n3)N(CCC/C=C\C5)C(=O)CO4)ccc21 [Compound 3-7-1],7.6 nM
7,CN1Cc2cc(Nc3ncc4c(=O)n5n(c4n3)-c3ccc4c(n3)N(CCC/C=C\C5)C(=O)CO4)ccc2C1=O [Compound 3-6-1],16.2 nM
8,CC1CN(c2ccc(Nc3ncc4c(=O)n5n(c4n3)-c3ccc4c(n3)N(CCC/C=C\C5)C(=O)CO4)cc2)CCN1C (stereo not shown) [Compound 3-3-3],5.7 nM
9,CN1CCN(Cc2ccc(Nc3ncc4c(=O)n5n(c4n3)-c3ccc4c(n3)N(CCC/C=C\C5)C(=O)CO4)cc2)CC1 [Compound 3-3-6],24.8 nM
10,CN1Cc2cc(Nc3ncc4c(=O)n5n(c4n3)-c3ccc4c(n3)N(CCC/C=C\C5)CCO4)ccc2C2(CC2)C1 [Compound 8-2-1],11.6 nM
11,CN1CCN(c2ccc(Nc3ncc4c(=O)n5n(c4n3)-c3cccc(n3)OCC/C=C\C5)cc2CO)CC1 [Compound 1-1-5],6.1 nM
12,Cc1cc(Nc2ncc3c(=O)n4n(c3n2)-c2ccc3c(n2)N(CCCC=CC4)C(=O)CO3)ccc1N1CCN(C)CC1 [Compound 3-3-9],6.3 nM
13,CN1CCN(c2ccc(Nc3ncc4c(=O)n5n(c4n3)-c3cccc(n3)OCCC/C=C\C5)cc2)CC1 [Compound 1-1-2],32 nM
14,CN1Cc2cc(Nc3ncc4c(=O)n5n(c4n3)-c3ccc4c(n3)N(CCO4)C(=O)CC/C=C\C5)ccc2C(C)(C)C1 [Compound 8-1-1],20.1 nM
15,CN1Cc2cc(Nc3ncc4c(=O)n5n(c4n3)-c3ccc4c(c3)N(CCC/C=C\C5)C(=O)CO4)ccc2C2(CC2)C1 [Compound 4-1-1],5.1 nM
16,CN1Cc2cc(Nc3ncc4c(=O)n5n(c4n3)-c3ccc4c(n3)N(CCC/C=C\C5)C(=O)CO4)ccc2C(C)(C)C1 [Compound 3-5-1],2.4 nM
17,COc1cc(Nc2ncc3c(=O)n4n(c3n2)-c2ccc3c(n2)N(CCC/C=C\C4)C(=O)CO3)ccc1N1CCN(C)C(C)C1 (stereo not shown) [Compound 3-3-5],4.8 nM
18,C=CCn1c(=O)c2cnc(SC)nc2n1-c1ccc2c(n1)N(CCCC#CCOC1CCCCO1)C(=O)CO2 (stereo not shown) [Compound 10-1-1],9.9 nM
19,COc1cc(Nc2ncc3c(=O)n4n(c3n2)-c2ccc3c(n2)N(CCC/C=C\C4)CCO3)ccc1N1CCN(C)CC1 [Compound 8-2-2],13 nM
20,CN1Cc2cc(Nc3ncc4c(=O)n5n(c4n3)-c3ccc4c(n3)N(CCCC/C=C/C5)C(=O)CO4)ccc2C2(CC2)C1 [Compound 3-2-1],21 nM
21,COc1cc(Nc2ncc3c(=O)n4n(c3n2)-c2ccc3c(n2)N(CCC#CC4)C(=O)CO3)ccc1N1CCN(C)CC1 [Compound 10-1-5],11.7 nM
22,O=C1COc2ccc3nc2N1CCC/C=C\Cn1c(=O)c2cnc(Nc4ccc5c(c4)CN(CC(F)F)CC54CC4)nc2n1-3 [Compound 3-2-8],9 nM
23,CN1Cc2cc(Nc3ncc4c(=O)n5n(c4n3)-c3cccc(n3)OCC/C=C\C5)ccc2C2(CC2)C1 [Compound 1-2-1],5.4 nM

row,SMILES,IC50
1,CN1CCN(c2ccc(Nc3ncc4c(=O)n5n(c4n3)-c3ccc4c(n3)N(CCC/C=C\C5)C(=O)CO4)cc2F)CC1 [Compound 3-3-8],7.6 nM
2,CN1Cc2cc(Nc3ncc4c(=O)n5n(c4n3)-c3cccc(n3)N(C)CCC/C=C\C5)ccc2C(C)(C)C1 [Compound 9-1-1],11.8 nM
3,CN1CCN(C)c2ccc(Nc3ncc4c(=O)n5n(c4n3)-c3ccc4c(n3)N(CCC/C=C\C5)C(=O)CO4)cc2C1 [Compound 3-4-1],9.4 nM
4,COc1cc(Nc2ncc3c(=O)n4n(c3n2)-c2ccc3c(n2)N(CCC/C=C\C4)C(=O)CC3)ccc1N1CCN(C)CC1 [Compound 5-1-1],7.5 nM
5,COc1cc(Nc2ncc3c(=O)n4n(c3n2)-c2cccc(n2)OCC/C=C\C4)ccc1N1CCN(C)CC1 [Compound 1-1-6],6.8 nM
6,CN1Cc2cc(Nc3ncc4c(=O)n5n(c4n3)-c3ccc4c(n3)N(CCO4)C(=O)OC/C=C\C5)ccc2C2(CC2)C1 [Compound 8-3-1],16.3 nM
7,CC(=O)N1CCCCC=CCn2c(=O)c3cnc(Nc4ccc(N5CCN(C)CC5)cc4)nc3n2-c2cccc1n2 [Compound 2-1-1],75.2 nM
8,CN1Cc2cc(Nc3ncc4c(=O)n5n(c4n3)-c3cccc(n3)OCCCC/C=C\C5)ccc2C2(CC2)C1 [Compound 1-2-2],10.3 nM
9,COc1cc(Nc2ncc3c(=O)n4n(c3n2)-c2ccc3c(n2)N(CCC/C=C/C4)C(=O)CO3)ccc1N1CCN(C)CC1 [Compound 3-3-11],6.5 nM
10,COc1cc(Nc2ncc3c(=O)n4n(c3n2)-c2ccc3c(n2)N(CCCC#CC4)C(=O)CO3)ccc1N1CCN(C)CC1 [Compound 10-1-3],8.4 nM
11,CC(=O)N1CCCCC=CCn2c(=O)c3cnc(Nc4ccc(N5CCN(C)CC5)cc4)nc3n2-c2cccc1n2 [Compound 2-1-2],62.5 nM
12,CC(=O)N1CC/C=C\Cn2c(=O)c3cnc(Nc4ccc5c(c4)CN(C)CC5(C)C)nc3n2-c2cccc1n2 [Compound 2-3-1],10.7 nM
13,O=C1COc2ccc3nc2N1CCC/C=C\Cn1c(=O)c2cnc(Nc4ccc(N5CCN6CCCC6C5)cc4)nc2n1-3 (stereo not shown) [Compound 3-3-10],8.8 nM
14,CC(=O)N1CCC/C=C\Cn2c(=O)c3cnc(Nc4ccc5c(c4)CN(C)CC5(C)C)nc3n2-c2cccc1n2 [Compound 2-3-2],16.4 nM
15,CN1CCN(c2ccc(Nc3ncc4c(=O)n5n(c4n3)-c3cccc(n3)OCC/C=C\C5)cc2)CC1 [Compound 1-1-3],7.3 nM
16,CN1Cc2cc(Nc3ncc4c(=O)n5n(c4n3)-c3ccc4c(n3)N(CCC/C=C\C5)C(=O)C(C)(C)O4)ccc2C2(CC2)C1 [Compound 7-1-1],12.9 nM
17,CCN1Cc2cc(Nc3ncc4c(=O)n5n(c4n3)-c3ccc4c(n3)N(CCC/C=C\C5)C(=O)CO4)ccc2C2(CC2)C1 [Compound 3-2-5],7.7 nM
18,CN1Cc2cc(Nc3ncc4c(=O)n5n(c4n3)-c3cccc(n3)OCC/C=C\C5)ccc2C(C)(C)C1 [Compound 1-3-1],8.1 nM
19,CN1C[C@@H]2C[C@H]1CN2c1ccc(Nc2ncc3c(=O)n4n(c3n2)-c2ccc3c(n2)N(CCC/C=C\C4)C(=O)CO3)cc1 [Compound 3-3-4],8.6 nM
20,CC(C)N1CCC(n2ncc3cc(Nc4ncc5c(=O)n6n(c5n4)-c4ccc5c(n4)N(CCC/C=C\C6)C(=O)CO5)ccc32)CC1 [Compound 3-7-14],6.5 nM
21,CN(C)CCn1ccc2cc(Nc3ncc4c(=O)n5n(c4n3)-c3cccc(n3)C(C)(O)CCC/C=C\C5)ccc21 (stereo not shown) [Compound 6-1-1],155 nM
22,CN1CCN(c2ccc(Nc3ncc4c(=O)n5n(c4n3)-c3cccc(n3)OCCOC/C=C/C5)cc2)CC1 [Compound 1-1-4],30.2 nM

# Tested on: Human osteosarcoma cell line MG63
# Assay: Cell proliferation assay (CCK-8 cell viability)
# Assay type: cell-based
# Settings: CCK-8, 72 hours incubation
# Experimental: In the present disclosure, cell assays were used to assess the biological activity of the compound. Human osteosarcoma cell line MG63 (ATCC CRL-1427) was cultured in a 96-well plate of Dulbecco's Modified Eagle's medium, supplemented with 10% fetal bovine serum and 1% (v/v) L-glutamine, and the cultivation environment was 37° C. and 5% CO2. Compound concentrations ranged from 4.5 nM to 30 μM. The Wee1 inhibitor stock solution was dissolved in DMSO, added to the medium with an indicated concentration and incubated for 72 hours. Negative control cells were only treated with vehicle. In some assays, a known Wee1 inhibitor was added as a positive control. Cell viability was measured using a Cell Counting Kit-8 (CCK-8, Sigma-Aldrich) under the instruction of the product specification. The data was analyzed using Graphpad software to obtain a fitted curve of IC50 values against the compounds.
row,SMILES,IC50
1,C=CCn1c(=O)c2cnc(SC)nc2n1-c1ccc2c(n1)N(CCCC#CCOC1CCCCO1)C(=O)CO2 (stereo not shown) [Compound 10-1-1],490 nM

# Same assay, conditions: Homo sapiens, MG-63, 72 h, CCK-8, 72 hours incubation
row,SMILES,IC50
1,CN1CCN(c2cc(Nc3ncc4c(=O)n5n(c4n3)-c3ccc4c(n3)N(CCC/C=C\C5)C(=O)CO4)cc3ccoc23)CC1 [Compound 3-7-17],270 nM
2,CC(=O)N1CCC/C=C\Cn2c(=O)c3cnc(Nc4ccc5c(c4)CN(C)CC54CC4)nc3n2-c2cccc1n2 [Compound 2-2-1],439 nM
3,CN1Cc2cc(Nc3ncc4c(=O)n5n(c4n3)-c3ccc4c(n3)N(CCC/C=C\C5)C(=O)CO4)ccc2C(C)(C)C1 [Compound 3-5-1],232 nM
4,CN1Cc2cc(Nc3ncc4c(=O)n5n(c4n3)-c3cccc(n3)OCC/C=C\C5)ccc2C2(CC2)C1 [Compound 1-2-1],593 nM
5,CN1CCN(c2ccc3cc(Nc4ncc5c(=O)n6n(c5n4)-c4ccc5c(n4)N(CCC/C=C\C6)C(=O)CO5)ccc3c2)CC1 [Compound 3-8-1],160 nM
6,"C=CCn1c(=O)c2cnc(Nc3ccc(N4CCN(C)CC4)cc3)nc2n1-c1cccc(C(C)(C)O)n1 [AZD1775, 2-allyl-1-(6-(2-hydroxypropan-2-yl)pyridin-2-yl)-6-((4-(4-methylpiperazin-1-yl)phenyl)amino)-1H-pyrazolo[3,4-d]pyrimidin-3 (2H)-one, reference compound]",785 nM
